Assay results reported in ChEMBL document CHEMBL4017516, “Sulfonium as a Surrogate for Ammonium: A New α7 Nicotinic Acetylcholine Receptor Partial Agonist with Desensitizing Activity” (J Med Chem, 2017).
Activity calls are given as the source filed them. The calls are words filed in the database; no cut-off is given here.

Assays:
[1] = target: T1, Neuronal acetylcholine receptor subunit alpha-7 (Homo sapiens, UniProt P36544); assay: Partial agonist activity at human alpha7 nAChR expressed in Xenopus laevis oocytes assessed as induction of maximum current response at 100 uM administered for 12 secs followed by washout period for 181 secs by voltage clamp technique relative to acetylcholine; format: cell-based
[2] = target: T1, Neuronal acetylcholine receptor subunit alpha-7; assay: Antagonist activity at human alpha7 nAChR expressed in Xenopus laevis oocytes assessed as inhibition of acetylcholine-induced current response at 300 uM administered for 12 secs followed by washout period for 181 secs by voltage clamp technique relative to acetylcholine; format: cell-based
[3] = target: T1, Neuronal acetylcholine receptor subunit alpha-7; assay: Silent agonist activity at human alpha7 nAChR expressed in Xenopus laevis oocytes assessed as induction of PNU-120596-stimulated peak current response at 10 uM administered for 12 secs followed by washout period for 181 secs by voltage clamp technique relative to acetylcholine; format: cell-based
[4] = target: T1, Neuronal acetylcholine receptor subunit alpha-7; assay: Silent agonist activity at human alpha7 nAChR expressed in Xenopus laevis oocytes assessed as induction of PNU-120596-stimulated peak current response at 30 uM administered for 12 secs followed by washout period for 181 secs by voltage clamp technique relative to acetylcholine; format: cell-based
[5] = target: T1, Neuronal acetylcholine receptor subunit alpha-7; assay: Partial agonist activity at human alpha7 nAChR expressed in Xenopus laevis oocytes assessed as induction of maximum current response at 10 to 300 uM administered for 12 secs followed by washout period for 181 secs by voltage clamp technique; format: cell-based
[6] = target: T1, Neuronal acetylcholine receptor subunit alpha-7; assay: Silent agonist activity at human alpha7 nAChR expressed in Xenopus laevis oocytes assessed as induction of PNU-120596-stimulated peak current response at 100 uM administered for 12 secs followed by washout period for 181 secs by voltage clamp technique relative to acetylcholine; format: cell-based
[7] = target: T2, Neuronal acetylcholine receptor; alpha4/beta2 (Homo sapiens, UniProt P17787+P43681); assay: Antagonist activity at human alpha4beta2 nAChR expressed in Xenopus laevis oocytes assessed as inhibition of acetylcholine-induced current response administered for 6 secs followed by washout period for 241 secs by voltage clamp technique; format: cell-based
[8] = Hydrolytic stability of compound in Ringers-D2O buffer at 8.4 mM at pH 7.2 up to 60 days by [1H]-NMR spectroscopy; format: physicochemical; conditions: pH 7.2, 1440 h, 8400 µM
[9] = target: T1, Neuronal acetylcholine receptor subunit alpha-7; assay: Induction of human alpha7 nAChR desensitization expressed in Xenopus laevis oocytes at 100 uM pretreated for 30 secs followed by PNU-120596 administered for 10 secs by voltage clamp technique relative to acetylcholine; format: cell-based
[10] = target: T1, Neuronal acetylcholine receptor subunit alpha-7; assay: Antagonist activity at human alpha7 nAChR expressed in Xenopus laevis oocytes assessed as inhibition of acetylcholine-induced current response administered for 12 secs followed by washout period for 181 secs by voltage clamp technique; format: cell-based
[11] = target: T1, Neuronal acetylcholine receptor subunit alpha-7; assay: Partial agonist activity at human alpha7 nAChR expressed in Xenopus laevis oocytes assessed as induction of maximum current response administered for 12 secs followed by washout period for 181 secs by voltage clamp technique; format: cell-based
[12] = Hydrolytic stability of compound in water at 8.4 mM up to 60 days by [1H]-NMR spectroscopy; format: physicochemical; conditions: buffer, 1440 h, 8400 µM
[13] = target: T3, Neuronal acetylcholine receptor; alpha3/beta2 (Homo sapiens) (UniProt P17787+P32297); assay: Agonist activity at human ganglionic alpha3beta2 nAChR expressed in Xenopus laevis oocytes assessed as induction of current response at 30 uM administered for 6 secs followed by washout period for 241 secs by in presence of acetylcholine voltage clamp technique; format: cell-based
[14] = target: T3, Neuronal acetylcholine receptor; alpha3/beta2 (Homo sapiens); assay: Antagonist activity at human ganglionic alpha3beta2 nAChR expressed in Xenopus laevis oocytes assessed as inhibition of acetylcholine-induced current response at 100 uM administered for 6 secs followed by washout period for 241 secs by in presence of acetylcholine voltage clamp technique; format: cell-based
[15] = target: T3, Neuronal acetylcholine receptor; alpha3/beta2 (Homo sapiens); assay: Antagonist activity at human […] alpha3beta2 nAChR expressed in Xenopus laevis oocytes assessed as inhibition of acetylcholine-induced current response at 30 uM administered for 6 secs followed by washout period for 241 secs by in presence of acetylcholine voltage clamp technique; format: cell-based
[16] = target: T2, Neuronal acetylcholine receptor; alpha4/beta2; assay: Agonist activity at human alpha4beta2 nAChR expressed in Xenopus laevis oocytes assessed as induction of current response administered for 6 secs followed by washout period for 241 secs by voltage clamp technique; format: cell-based
[17] = target: T3, Neuronal acetylcholine receptor; alpha3/beta2 (Homo sapiens); assay: Agonist activity at human […] alpha3beta2 nAChR expressed in Xenopus laevis oocytes assessed as induction of current response at 30 uM administered for 6 secs followed by washout period for 241 secs by in presence of acetylcholine voltage clamp technique; format: cell-based

T1 sequence (P36544 whole entry): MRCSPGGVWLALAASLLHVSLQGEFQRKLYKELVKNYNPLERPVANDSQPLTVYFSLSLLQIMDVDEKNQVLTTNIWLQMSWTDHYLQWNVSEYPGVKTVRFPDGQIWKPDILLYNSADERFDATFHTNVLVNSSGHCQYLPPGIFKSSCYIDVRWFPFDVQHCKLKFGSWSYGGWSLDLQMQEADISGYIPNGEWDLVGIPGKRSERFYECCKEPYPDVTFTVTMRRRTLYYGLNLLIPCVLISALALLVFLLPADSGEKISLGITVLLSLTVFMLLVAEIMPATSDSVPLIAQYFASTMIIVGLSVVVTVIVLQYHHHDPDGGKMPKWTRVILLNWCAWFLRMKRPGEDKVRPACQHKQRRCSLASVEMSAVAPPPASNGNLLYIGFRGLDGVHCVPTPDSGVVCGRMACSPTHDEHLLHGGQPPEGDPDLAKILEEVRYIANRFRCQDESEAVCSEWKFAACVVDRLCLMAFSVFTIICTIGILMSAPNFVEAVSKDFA
T2 sequence (P17787 whole entry): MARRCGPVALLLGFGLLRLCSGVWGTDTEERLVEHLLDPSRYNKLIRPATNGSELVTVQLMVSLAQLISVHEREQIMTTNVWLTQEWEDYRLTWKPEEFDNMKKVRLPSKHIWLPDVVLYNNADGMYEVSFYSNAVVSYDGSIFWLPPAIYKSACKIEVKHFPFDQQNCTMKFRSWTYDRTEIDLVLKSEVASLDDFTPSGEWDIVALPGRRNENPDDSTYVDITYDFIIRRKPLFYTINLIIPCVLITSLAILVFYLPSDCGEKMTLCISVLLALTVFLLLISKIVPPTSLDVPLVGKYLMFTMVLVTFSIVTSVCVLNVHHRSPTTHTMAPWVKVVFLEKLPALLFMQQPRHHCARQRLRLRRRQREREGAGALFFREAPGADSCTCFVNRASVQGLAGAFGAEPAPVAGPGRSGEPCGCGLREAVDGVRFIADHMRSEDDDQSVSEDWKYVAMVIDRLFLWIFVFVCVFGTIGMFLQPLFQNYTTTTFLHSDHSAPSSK
T2 sequence (P43681 whole entry): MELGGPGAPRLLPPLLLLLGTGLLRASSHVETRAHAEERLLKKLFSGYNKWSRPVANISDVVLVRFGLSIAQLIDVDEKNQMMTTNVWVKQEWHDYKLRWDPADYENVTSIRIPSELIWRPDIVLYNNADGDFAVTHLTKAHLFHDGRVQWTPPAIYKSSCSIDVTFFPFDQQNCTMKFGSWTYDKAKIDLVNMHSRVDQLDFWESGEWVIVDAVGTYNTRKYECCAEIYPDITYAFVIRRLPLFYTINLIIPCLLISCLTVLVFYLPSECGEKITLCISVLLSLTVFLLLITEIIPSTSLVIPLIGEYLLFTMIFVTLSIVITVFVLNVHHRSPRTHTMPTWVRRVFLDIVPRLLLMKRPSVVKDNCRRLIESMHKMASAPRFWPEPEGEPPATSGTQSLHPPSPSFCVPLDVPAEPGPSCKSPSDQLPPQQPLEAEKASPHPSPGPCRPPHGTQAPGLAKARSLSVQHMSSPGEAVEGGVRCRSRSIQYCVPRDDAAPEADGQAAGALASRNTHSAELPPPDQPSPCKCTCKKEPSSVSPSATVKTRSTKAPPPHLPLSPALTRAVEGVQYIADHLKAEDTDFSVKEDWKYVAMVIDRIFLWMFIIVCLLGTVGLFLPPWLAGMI

## CCN1CCN(c2ccccc2)CC1
[1]
  fold change (FC): 0
[2]
  inhibition: < 20%
[3]
  Activity: inactive
[4]
  Activity: inactive
[5]
  Activity: inactive
[6]
  Activity: inactive

## CC[S+]1CCN(c2ccccc2)CC1.O=S(=O)([O-])C(F)(F)F
[1]
  fold change (FC): 0.07
[7]
  IC50: 51 µM
[3]
  fold change (FC): 5
[4]
  fold change (FC): 3
[8]
  Stability: Stable
[9]
  Activity: Active
[10]
  IC50: 73 µM
[11]
  EC50: 40 µM
[12]
  Stability: Stable
[13]
  Activity: inactive
[14]
  inhibition: Active
[15]
  inhibition: Active
[16]
  Activity: inactive
[17]
  Activity: inactive
[6]
  fold change (FC): 25

## CC[N+]1(CC)CCN(c2ccccc2)CC1
[1]
  fold change (FC): 0.47
[3]
  Activity: Active
[4]
  Activity: Active
[10]
  IC50: 55 µM
[6]
  Activity: Active

## CC[N+]1(c2ccccc2)CCSCC1
[3]
  Activity: inactive
[4]
  Activity: inactive
[11]
  Activity: inactive
[6]
  Activity: inactive
